{"source": "paper PMC11397024", "about": "“Strategic Fluorination to Achieve a Potent, Selective, Metabolically Stable, and Orally Bioavailable Inhibitor of CSNK2” (Molecules, 2024)", "assay_in_all_cases": "NanoBRET K192", "format_in_all_cases": "cell-based", "settings_in_all_cases": "HEK293", "key": {"ULK3v1": {"molecular_target": "T1, ULK3v1 (Homo sapiens, UniProt Q6PHR2)", "T1 construct": "host or cells: HEK293", "T1 sequence (Q6PHR2 whole entry, the tested form may be a part)": "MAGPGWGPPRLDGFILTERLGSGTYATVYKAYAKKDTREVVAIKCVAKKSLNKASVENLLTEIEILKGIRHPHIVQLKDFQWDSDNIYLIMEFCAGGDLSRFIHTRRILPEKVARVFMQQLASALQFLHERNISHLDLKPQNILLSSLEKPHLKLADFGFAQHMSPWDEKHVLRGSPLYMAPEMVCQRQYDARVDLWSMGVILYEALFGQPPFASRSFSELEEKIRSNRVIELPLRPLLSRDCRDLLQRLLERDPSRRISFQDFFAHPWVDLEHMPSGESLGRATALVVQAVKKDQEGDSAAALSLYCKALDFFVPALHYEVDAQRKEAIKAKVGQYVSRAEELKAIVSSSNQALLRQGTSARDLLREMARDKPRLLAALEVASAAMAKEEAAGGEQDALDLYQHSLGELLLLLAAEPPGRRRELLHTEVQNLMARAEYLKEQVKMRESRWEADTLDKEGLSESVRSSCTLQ", "procedure,_shortened": "(§1)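 HEK293 cells were transfected overnight with NanoLuc–kinase fusion vectors, then treated for 2 h at 37 °C with compound (added as 100 μM working solution) plus K10 tracer. BRET was read at 450/610 nm after substrate and extracellular inhibitor, and fractional occupancy was calculated against no-compound controls.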"}, "MAST4": {"molecular_target": "T2, MAST4 (Homo sapiens, UniProt O15021)", "T2 construct": "purchased Promega (NanoBRET Target Engagement K192 Kinase Selectivity System)", "procedure,_shortened": "as §1"}, "RPS6KA3": {"molecular_target": "T3, RPS6KA3 (Homo sapiens, UniProt P51812)", "T3 construct": "purchased Promega (NanoBRET Target Engagement K192 Kinase Selectivity System)", "T3 sequence (P51812 whole entry)": "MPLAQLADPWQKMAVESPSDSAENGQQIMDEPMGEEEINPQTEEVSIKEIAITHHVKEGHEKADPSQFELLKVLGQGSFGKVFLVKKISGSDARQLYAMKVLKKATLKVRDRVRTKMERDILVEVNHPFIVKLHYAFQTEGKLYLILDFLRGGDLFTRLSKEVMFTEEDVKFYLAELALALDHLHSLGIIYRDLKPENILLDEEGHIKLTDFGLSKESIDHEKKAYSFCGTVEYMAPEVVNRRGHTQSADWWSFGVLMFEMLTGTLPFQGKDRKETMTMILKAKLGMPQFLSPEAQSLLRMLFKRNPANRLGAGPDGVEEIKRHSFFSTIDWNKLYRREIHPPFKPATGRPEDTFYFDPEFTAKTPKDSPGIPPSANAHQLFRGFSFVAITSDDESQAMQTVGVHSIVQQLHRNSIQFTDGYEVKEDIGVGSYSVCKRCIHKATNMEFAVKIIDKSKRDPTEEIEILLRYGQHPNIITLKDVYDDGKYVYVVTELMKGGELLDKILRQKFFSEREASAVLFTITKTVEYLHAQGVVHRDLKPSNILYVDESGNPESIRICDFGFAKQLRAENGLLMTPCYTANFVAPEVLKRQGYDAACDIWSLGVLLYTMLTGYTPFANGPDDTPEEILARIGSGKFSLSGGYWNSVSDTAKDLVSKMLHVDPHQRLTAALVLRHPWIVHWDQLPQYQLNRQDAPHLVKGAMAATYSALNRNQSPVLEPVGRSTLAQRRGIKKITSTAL", "procedure,_shortened": "as §1"}, "CSNK1G2": {"molecular_target": "T4, CSNK1G2 (Homo sapiens, UniProt P78368)", "T4 construct": "purchased Promega (NanoBRET Target Engagement K192 Kinase Selectivity System)", "procedure,_shortened": "as §1"}, "LATS1": {"molecular_target": "T5, LATS1 (Homo sapiens, UniProt O95835)", "T5 construct": "purchased Promega (NanoBRET Target Engagement K192 Kinase Selectivity System)", "procedure,_shortened": "as §1"}, "PAK6": {"molecular_target": "T6, PAK6 (Homo sapiens, UniProt Q9NQU5)", "T6 construct": "purchased Promega (NanoBRET Target Engagement K192 Kinase Selectivity System)", "T6 sequence (Q9NQU5 whole entry)": "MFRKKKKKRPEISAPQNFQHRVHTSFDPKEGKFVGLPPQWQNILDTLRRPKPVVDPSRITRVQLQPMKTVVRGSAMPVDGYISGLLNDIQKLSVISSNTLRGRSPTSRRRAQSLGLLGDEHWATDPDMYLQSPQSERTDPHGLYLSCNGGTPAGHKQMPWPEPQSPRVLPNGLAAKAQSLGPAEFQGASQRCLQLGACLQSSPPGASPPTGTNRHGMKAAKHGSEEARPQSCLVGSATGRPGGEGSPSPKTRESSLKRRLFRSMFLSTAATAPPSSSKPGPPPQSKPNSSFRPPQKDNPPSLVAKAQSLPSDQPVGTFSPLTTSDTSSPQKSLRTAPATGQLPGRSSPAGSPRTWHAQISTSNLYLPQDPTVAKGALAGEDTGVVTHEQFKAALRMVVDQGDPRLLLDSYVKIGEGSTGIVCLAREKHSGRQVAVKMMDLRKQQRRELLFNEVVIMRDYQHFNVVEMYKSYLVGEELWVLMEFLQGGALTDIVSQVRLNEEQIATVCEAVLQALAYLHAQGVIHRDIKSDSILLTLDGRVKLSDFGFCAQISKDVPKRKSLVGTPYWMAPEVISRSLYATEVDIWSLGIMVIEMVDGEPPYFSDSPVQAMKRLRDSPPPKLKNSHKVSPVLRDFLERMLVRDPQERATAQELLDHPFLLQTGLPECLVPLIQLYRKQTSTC", "procedure,_shortened": "as §1"}, "CDKL5": {"molecular_target": "T7, CDKL5 (Homo sapiens, UniProt O76039)", "T7 construct": "purchased Promega (NanoBRET Target Engagement K192 Kinase Selectivity System)", "procedure,_shortened": "as §1"}, "NIM1K": {"molecular_target": "T8, NIM1K (Homo sapiens, UniProt Q8IY84)", "T8 construct": "host or cells: HEK293", "procedure,_shortened": "as §1"}, "MYLK2": {"molecular_target": "T9, MYLK2 (Homo sapiens, UniProt Q9H1R3)", "T9 construct": "purchased Promega (NanoBRET Target Engagement K192 Kinase Selectivity System)", "T9 sequence (Q9H1R3 whole entry)": "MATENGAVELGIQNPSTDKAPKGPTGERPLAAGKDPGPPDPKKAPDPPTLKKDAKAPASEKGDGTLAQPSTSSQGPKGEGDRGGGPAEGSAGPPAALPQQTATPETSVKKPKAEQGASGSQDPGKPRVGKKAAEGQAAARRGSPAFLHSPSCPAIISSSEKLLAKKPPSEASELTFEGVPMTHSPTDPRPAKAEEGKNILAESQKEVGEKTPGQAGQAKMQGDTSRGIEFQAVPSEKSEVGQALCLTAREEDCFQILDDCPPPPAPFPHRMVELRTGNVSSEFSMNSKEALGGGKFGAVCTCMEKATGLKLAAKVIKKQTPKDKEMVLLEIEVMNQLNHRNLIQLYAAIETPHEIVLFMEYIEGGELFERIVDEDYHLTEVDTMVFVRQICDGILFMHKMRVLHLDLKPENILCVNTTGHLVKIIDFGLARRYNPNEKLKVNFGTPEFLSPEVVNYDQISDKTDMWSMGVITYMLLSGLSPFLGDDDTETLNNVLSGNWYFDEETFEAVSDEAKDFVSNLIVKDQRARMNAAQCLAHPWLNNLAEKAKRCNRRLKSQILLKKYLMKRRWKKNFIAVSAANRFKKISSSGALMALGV", "procedure,_shortened": "as §1"}, "TNNI3K": {"molecular_target": "T10, TNNI3K (Homo sapiens, UniProt Q59H18)", "T10 construct": "purchased Promega (NanoBRET Target Engagement K192 Kinase Selectivity System)", "procedure,_shortened": "as §1"}, "MAPK14": {"molecular_target": "T11, MAPK14 (Homo sapiens, UniProt Q16539)", "T11 construct": "purchased Promega (NanoBRET Target Engagement K192 Kinase Selectivity System)", "procedure,_shortened": "as §1"}, "ULK1": {"molecular_target": "T12, ULK1 (Homo sapiens, UniProt O75385)", "T12 construct": "purchased Promega (NanoBRET Target Engagement K192 Kinase Selectivity System)", "procedure,_shortened": "as §1"}, "TYRO3": {"molecular_target": "T13, TYRO3 (Homo sapiens, UniProt Q06418)", "T13 construct": "purchased Promega (NanoBRET Target Engagement K192 Kinase Selectivity System)", "procedure,_shortened": "as §1"}, "NEK3": {"molecular_target": "T14, NEK3 (Homo sapiens, UniProt P51956)", "T14 construct": "host or cells: HEK293", "procedure,_shortened": "as §1"}, "NEK1": {"molecular_target": "T15, NEK1 (Homo sapiens, UniProt Q96PY6)", "T15 construct": "purchased Promega (NanoBRET Target Engagement K192 Kinase Selectivity System)", "procedure,_shortened": "as §1"}, "NEK5": {"molecular_target": "T16, NEK5 (Homo sapiens, UniProt Q6P3R8)", "T16 construct": "purchased Promega (NanoBRET Target Engagement K192 Kinase Selectivity System)", "T16 sequence (Q6P3R8 whole entry)": "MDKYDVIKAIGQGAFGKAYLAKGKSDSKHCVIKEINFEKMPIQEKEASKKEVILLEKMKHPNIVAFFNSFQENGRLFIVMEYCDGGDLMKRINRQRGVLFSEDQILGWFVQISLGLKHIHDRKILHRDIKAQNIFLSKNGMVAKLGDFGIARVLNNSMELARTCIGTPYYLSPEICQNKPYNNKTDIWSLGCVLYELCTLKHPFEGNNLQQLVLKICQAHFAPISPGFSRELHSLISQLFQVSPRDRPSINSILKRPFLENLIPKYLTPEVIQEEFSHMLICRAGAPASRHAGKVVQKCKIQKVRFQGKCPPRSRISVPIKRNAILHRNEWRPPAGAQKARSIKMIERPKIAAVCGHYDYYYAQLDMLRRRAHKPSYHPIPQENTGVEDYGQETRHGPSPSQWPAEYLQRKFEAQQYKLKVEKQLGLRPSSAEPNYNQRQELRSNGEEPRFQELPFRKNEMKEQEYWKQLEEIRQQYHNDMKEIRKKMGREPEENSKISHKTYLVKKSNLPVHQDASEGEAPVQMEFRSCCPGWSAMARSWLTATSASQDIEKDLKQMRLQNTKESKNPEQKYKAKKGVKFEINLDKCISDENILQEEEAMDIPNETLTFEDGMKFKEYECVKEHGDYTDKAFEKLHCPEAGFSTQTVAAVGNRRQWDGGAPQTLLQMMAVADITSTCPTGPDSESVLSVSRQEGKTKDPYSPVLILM", "procedure,_shortened": "as §1"}, "CDKL1": {"molecular_target": "T17, CDKL1 (Homo sapiens, UniProt Q00532)", "T17 construct": "purchased Promega (NanoBRET Target Engagement K192 Kinase Selectivity System)", "T17 sequence (Q00532 whole entry)": "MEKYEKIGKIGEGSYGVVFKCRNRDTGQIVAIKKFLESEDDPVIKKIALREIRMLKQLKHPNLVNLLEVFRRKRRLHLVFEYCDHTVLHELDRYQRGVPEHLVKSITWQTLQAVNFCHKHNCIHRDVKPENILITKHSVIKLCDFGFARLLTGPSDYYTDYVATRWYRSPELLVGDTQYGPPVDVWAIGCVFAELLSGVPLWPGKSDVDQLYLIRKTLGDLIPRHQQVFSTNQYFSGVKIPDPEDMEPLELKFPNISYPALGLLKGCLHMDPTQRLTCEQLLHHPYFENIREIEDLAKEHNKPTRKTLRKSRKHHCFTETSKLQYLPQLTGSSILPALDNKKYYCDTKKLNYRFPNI", "procedure,_shortened": "as §1"}, "MAP3K9": {"molecular_target": "T18, MAP3K9 (Homo sapiens, UniProt P80192)", "T18 construct": "purchased Promega (NanoBRET Target Engagement K192 Kinase Selectivity System)", "procedure,_shortened": "as §1"}, "MAPK11": {"molecular_target": "T19, MAPK11 (Homo sapiens, UniProt Q15759)", "T19 construct": "purchased Promega (NanoBRET Target Engagement K192 Kinase Selectivity System)", "procedure,_shortened": "as §1"}, "EPHA1": {"molecular_target": "T20, EPHA1 (Homo sapiens, UniProt P21709)", "T20 construct": "purchased Promega (NanoBRET Target Engagement K192 Kinase Selectivity System)", "procedure,_shortened": "as §1"}, "MAPK6": {"molecular_target": "T21, MAPK6 (Homo sapiens, UniProt Q16659)", "T21 construct": "purchased Promega (NanoBRET Target Engagement K192 Kinase Selectivity System)", "procedure,_shortened": "as §1"}, "MUSK": {"molecular_target": "T22, MUSK (Homo sapiens, UniProt O15146)", "T22 construct": "purchased Promega (NanoBRET Target Engagement K192 Kinase Selectivity System)", "T22 sequence (O15146 24-869)": "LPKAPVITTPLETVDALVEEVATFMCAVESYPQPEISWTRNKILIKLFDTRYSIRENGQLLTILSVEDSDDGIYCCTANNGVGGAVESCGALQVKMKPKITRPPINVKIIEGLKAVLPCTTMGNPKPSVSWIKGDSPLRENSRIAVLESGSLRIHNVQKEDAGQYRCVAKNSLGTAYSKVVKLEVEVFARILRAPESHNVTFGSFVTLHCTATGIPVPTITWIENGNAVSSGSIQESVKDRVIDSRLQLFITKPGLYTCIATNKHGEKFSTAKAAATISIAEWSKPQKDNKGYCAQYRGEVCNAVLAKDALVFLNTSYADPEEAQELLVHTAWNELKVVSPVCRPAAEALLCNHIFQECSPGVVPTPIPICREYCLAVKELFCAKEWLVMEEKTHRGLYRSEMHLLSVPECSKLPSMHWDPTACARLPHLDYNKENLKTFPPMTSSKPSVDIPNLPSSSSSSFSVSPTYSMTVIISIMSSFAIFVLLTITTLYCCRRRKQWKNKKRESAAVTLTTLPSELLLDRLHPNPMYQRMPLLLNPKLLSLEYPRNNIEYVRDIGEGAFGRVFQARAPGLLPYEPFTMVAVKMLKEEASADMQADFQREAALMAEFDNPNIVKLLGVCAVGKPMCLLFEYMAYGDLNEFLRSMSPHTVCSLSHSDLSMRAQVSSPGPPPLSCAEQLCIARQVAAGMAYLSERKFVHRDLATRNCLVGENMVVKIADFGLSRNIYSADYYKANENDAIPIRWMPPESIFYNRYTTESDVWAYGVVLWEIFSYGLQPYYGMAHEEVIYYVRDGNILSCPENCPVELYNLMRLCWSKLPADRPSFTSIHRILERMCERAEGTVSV", "procedure,_shortened": "as §1"}, "CDK14 + Y": {"molecular_target": "T23, CDK14 + Y (Homo sapiens, UniProt O94921)", "T23 construct": "purchased Promega (NanoBRET Target Engagement K192 Kinase Selectivity System)", "procedure,_shortened": "as §1"}, "SNRK": {"molecular_target": "T24, SNRK (Homo sapiens, UniProt Q9NRH2)", "T24 construct": "host or cells: HEK293", "procedure,_shortened": "as §1"}, "CAMK2A": {"molecular_target": "T25, CAMK2A (Homo sapiens, UniProt Q9UQM7)", "T25 construct": "purchased Promega (NanoBRET Target Engagement K192 Kinase Selectivity System)", "T25 sequence (Q9UQM7 whole entry)": "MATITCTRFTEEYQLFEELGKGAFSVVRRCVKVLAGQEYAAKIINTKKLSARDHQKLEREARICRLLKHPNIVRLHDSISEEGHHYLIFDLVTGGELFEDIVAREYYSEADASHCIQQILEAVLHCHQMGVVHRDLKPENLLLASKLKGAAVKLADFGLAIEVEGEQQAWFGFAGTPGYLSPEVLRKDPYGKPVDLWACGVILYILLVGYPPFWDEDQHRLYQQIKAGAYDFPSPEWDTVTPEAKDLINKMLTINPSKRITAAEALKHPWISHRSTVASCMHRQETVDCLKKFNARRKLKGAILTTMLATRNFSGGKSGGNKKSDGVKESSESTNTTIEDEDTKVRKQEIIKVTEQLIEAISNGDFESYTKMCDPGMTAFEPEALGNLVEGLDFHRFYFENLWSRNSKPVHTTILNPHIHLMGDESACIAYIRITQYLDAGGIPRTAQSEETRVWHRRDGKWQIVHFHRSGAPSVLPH", "procedure,_shortened": "as §1"}, "CAMK1": {"molecular_target": "T26, CAMK1 (Homo sapiens, UniProt Q14012)", "T26 construct": "purchased Promega (NanoBRET Target Engagement K192 Kinase Selectivity System)", "procedure,_shortened": "as §1"}, "FGFR2": {"molecular_target": "T27, FGFR2 (Homo sapiens, UniProt P21802)", "T27 construct": "host or cells: HEK293", "procedure,_shortened": "as §1"}, "MAPK4": {"molecular_target": "T28, MAPK4 (Homo sapiens, UniProt P31152)", "T28 construct": "purchased Promega (NanoBRET Target Engagement K192 Kinase Selectivity System)", "procedure,_shortened": "as §1"}}}
{"smiles": "CCC(=O)Nc1cc(Nc2cc(NC3CC3)n3ncc(C#N)c3n2)c(F)cc1N1CCC[C@H](NC)C1", "note": "[Compound 2, (S)-N-(5-((3-cyano-7-(cyclopropylamino)pyrazolo[1,5-a]pyrimidin-5-yl)amino)-4-fluoro-2-(3-(methylamino)piperidin-1-yl)phenyl)propionamide]", "values": [{"measurement": "receptor occupancy at 10 µM", "setting": "ULK3v1", "result": -7.4, "unit": "%"}, {"measurement": "receptor occupancy at 10 µM", "setting": "MAST4", "result": 11.4, "unit": "%"}, {"measurement": "receptor occupancy at 10 µM", "setting": "RPS6KA3", "result": 1.8, "unit": "%"}, {"measurement": "receptor occupancy at 10 µM", "setting": "CSNK1G2", "result": 21.8, "unit": "%"}, {"measurement": "receptor occupancy at 10 µM", "setting": "LATS1", "result": -0.4, "unit": "%"}, {"measurement": "receptor occupancy at 10 µM", "setting": "PAK6", "result": 15.3, "unit": "%"}, {"measurement": "receptor occupancy at 10 µM", "setting": "CDKL5", "result": 17.2, "unit": "%"}, {"measurement": "receptor occupancy at 10 µM", "setting": "NIM1K", "result": -23.7, "unit": "%"}, {"measurement": "receptor occupancy at 10 µM", "setting": "MYLK2", "result": 13.1, "unit": "%"}, {"measurement": "receptor occupancy at 10 µM", "setting": "TNNI3K", "result": 8, "unit": "%"}, {"measurement": "receptor occupancy at 10 µM", "setting": "MAPK14", "result": 10.4, "unit": "%"}, {"measurement": "receptor occupancy at 10 µM", "setting": "ULK1", "result": 25.2, "unit": "%"}, {"measurement": "receptor occupancy at 10 µM", "setting": "TYRO3", "result": 3.9, "unit": "%"}, {"measurement": "receptor occupancy at 10 µM", "setting": "NEK3", "result": -11.1, "unit": "%"}, {"measurement": "receptor occupancy at 10 µM", "setting": "NEK1", "result": -1.9, "unit": "%"}, {"measurement": "receptor occupancy at 10 µM", "setting": "NEK5", "result": 24.8, "unit": "%"}, {"measurement": "receptor occupancy at 10 µM", "setting": "CDKL1", "result": 1.5, "unit": "%"}, {"measurement": "receptor occupancy at 10 µM", "setting": "MAP3K9", "result": 4.3, "unit": "%"}, {"measurement": "receptor occupancy at 10 µM", "setting": "MAPK11", "result": 9.4, "unit": "%"}, {"measurement": "receptor occupancy at 10 µM", "setting": "EPHA1", "result": 7.7, "unit": "%"}, {"measurement": "receptor occupancy at 10 µM", "setting": "MAPK6", "result": 14.6, "unit": "%"}, {"measurement": "receptor occupancy at 10 µM", "setting": "MUSK", "result": -0.5, "unit": "%"}, {"measurement": "receptor occupancy at 10 µM", "setting": "CDK14 + Y", "result": 29.4, "unit": "%"}, {"measurement": "receptor occupancy at 10 µM", "setting": "SNRK", "result": -2, "unit": "%"}, {"measurement": "receptor occupancy at 10 µM", "setting": "CAMK2A", "result": 12.4, "unit": "%"}, {"measurement": "receptor occupancy at 10 µM", "setting": "CAMK1", "result": 26.2, "unit": "%"}, {"measurement": "receptor occupancy at 10 µM", "setting": "FGFR2", "result": -2.9, "unit": "%"}, {"measurement": "receptor occupancy at 10 µM", "setting": "MAPK4", "result": 0.9, "unit": "%"}]}
